Experimental data from patent US20070219223A1, “Compositions and methods for treating respiratory disorders” (Endacea, Inc., priority 2006, published 2007).
Where a name gives a salt, the structure may show the parent alone.

Tests used:
[1] = cited from earlier work
[2] = tested on: allergic rabbits; assay: Adenosine provocation test after aerosol L-97-1 in allergic rabbits (PC50 of adenosine, lung compliance); type: in vivo, rabbit; conditions: controls without L-97-1, aerosolized adenosine, n=9
[3] = tested on: allergic rabbits; conditions: baseline BHR, aerosolized histamine, n=5
Experimental: All animals were anesthetized and intubated. All treatments were administered via an endotracheal tube with an ultrasonic nebulizer that produces aerosol droplets (80% are less than 5 μm). Dynamic compliance (Cdyn) was calculated from tidal volume and the difference in transpulmonary pressure (PTP) at zero flow (V). Total lung resistance (RT) was calculated as the ratio of PTP and V at […] lung volumes; these measurements are made automatically with the Buxco Respiratory Analyzer.

In the case of `OCc1cc(C(O)CNCCCCCCOCCCCc2ccccc2)ccc1O` (stereo not drawn) [salmeterol xinafoate, salmeterol 1-hydroxy-2-napthoic acid salt], the Solubility in water [1] is given as “sparingly soluble in water”.
In the case of `Nc1ncnc2c1ncn2[C@@H]1O[C@H](CO)[C@@H](O)[C@H]1O` [adenosine], the “PC50 for adenosine (concentration of adenosine to reduce lung compliance by 50%)” value [2] is reported as 3.24 ± 1.79 mg/mL.
For `NCCc1c[nH]cn1` [histamine], the “PC50 for histamine (concentration of histamine to reduce lung compliance by 50%)” value [3] was 0.77 ± 0.28 mg/mL.
